Experimental findings from patent US8450300B2 (priority 2009, dated 2013) are described below.

SMILES strings stand for the structures. Where two headings read alike, the source gives them in different places.

Data set [1] has as its system 217 S. aureus Canadian isolates. In kind it is cell-based. The settings on record: 217 Canadian isolates. How it is done:
CLSI broth microdilution (BMD) and anaerobic agar dilution (AD) methods were performed. Modifications of standard test methods included adding 10% human serum, adjusting the medium pH to 5, 6, and 8, and synergy was assessed by the checkerboard method.

Data set [2] concerns methicillin-resistant S. aureus (MRSA) strain USA 300. The experiment in a line: Hollow fiber pharmacodynamic model, resistance potential. The class given is cell-based. How it is done:
A hollow fiber model was used to evaluate CEM-102 resistance potential in methicillin-resistant S. aureus (MRSA) strain USA 300 (Network of Antimicrobial Resistance in Staphylococcus aureus (NARSA), Chantilly, Va.). USA 300 is a highly virulent strain of MRSA and is the most common community-associated MRSA isolate in the USA. MIC values were determined in accordance with Clinical and Laboratory Standards Institute (CLSI).
The hollow fiber model comprised a two-compartment hollow fiber model (Louie et al. Antimicrob Agents Chemother 52:2486-2496(2008)) consisting of a volume of 15 mL in the central compartment, with multiple ports for the removal of broth, delivery of antibiotics, and collection of bacterial and antimicrobial samples. […] All experiments were performed in duplicate.
Hollow fibers contain 15 ml of media was prepared and inoculated with 10^6 colony forming units (CFU)/mL USA 300 bacteria. One of three different dosing regimens of […] was then applied to the fibers: (1) […] q12h; (2) 1200 mg/ml×2, followed by […], q12h; (3) 1500 mg/ml×2, followed by […], q12h.

Data set [3] in a line: Multi-dose pharmacokinetics 500 mg TID, 13 doses. In kind it is in vivo, human. Conditions: for AUC: Day 5 (13 doses). How it is done: The pharmacokinetics of multiple oral doses of CEM-102 (sodium fusidate) 500 mg tablets in healthy subjects was evaluated. Subjects were randomized in a 3:1 ratio and received either CEM-102 500 mg (2×250 mg; n=18) or placebo tablets TID (n=6) for 4.5 days for a total of 13 doses.
Blood samples for assay of plasma concentrations of CEM-102 and placebo were collected pre-dose on Day 1 and at 24, 48, 72, and 96 hours. Samples were also collected at the following times after the morning dose on Day 5: 0.5, 1, 1.5, 2, 2.5, 3, 3.5, 4, 6, 8, 12, 16, 24, 36, and 48 hours.
Plasma concentrations of CEM-102 were assayed at MicroConstants, Inc. in San Diego, Calif., USA using a validated LC/MS/MS method with a lower limit of quantitation (LLOQ) of 20.0 ng/mL.

On to `CC(=O)O[C@H]1C[C@@]2(C)[C@@H](C[C@@H](O)[C@H]3[C@@]4(C)CC[C@@H](O)[C@@H](C)[C@@H]4CC[C@@]32C)/C1=C(\CCC=C(C)C)C(=O)O` [CEM-102, Sodium fusidate], for which, in data set [1], the “isolates with MICs of ≧2.0 μg/mL (classified as resistant)” value stood at 6.5%. In addition, the “reduction of bacterial counts” value in data set [2] (1200 mg×2 then 600 mg q12h) amounted to 2 logs. The “time until which resistance was suppressed” value in data set [2] (1500 mg×2 then 600 mg q12h) is listed as more than 72 h. Moreover, the trough level in data set [3] (500 mg TID, prior to dosing on Day 5) came out at 105 µg/mL. For the same compound, the “Cmaxss, geometric mean” value in data set [3] (human, in vivo, 500 mg) was found to be 145.68 µg/mL. Further, the AUC in data set [3] (human, in vivo, 500 mg, 500 mg TID, read-out: AUC0-tss, geometric mean) worked out at 3560 µg·h/mL; in data set [3] (human, in vivo, 500 mg, 500 mg TID, read-out: AUC0-τss, geometric mean), 1030 µg·h/mL.
